In article PMC4869175, “Evidence that phytochrome functions as a protein kinase in plant light signalling” (Nature Communications, 2016):

Target: T1, FL-AsphyA (Avena sativa, UniProt P06593)
T1 construct: Full-length phytochrome genes of AsPHYA; made in house; host or cells: Pichia pastoris GS115
T1 sequence (P06593 1-1129): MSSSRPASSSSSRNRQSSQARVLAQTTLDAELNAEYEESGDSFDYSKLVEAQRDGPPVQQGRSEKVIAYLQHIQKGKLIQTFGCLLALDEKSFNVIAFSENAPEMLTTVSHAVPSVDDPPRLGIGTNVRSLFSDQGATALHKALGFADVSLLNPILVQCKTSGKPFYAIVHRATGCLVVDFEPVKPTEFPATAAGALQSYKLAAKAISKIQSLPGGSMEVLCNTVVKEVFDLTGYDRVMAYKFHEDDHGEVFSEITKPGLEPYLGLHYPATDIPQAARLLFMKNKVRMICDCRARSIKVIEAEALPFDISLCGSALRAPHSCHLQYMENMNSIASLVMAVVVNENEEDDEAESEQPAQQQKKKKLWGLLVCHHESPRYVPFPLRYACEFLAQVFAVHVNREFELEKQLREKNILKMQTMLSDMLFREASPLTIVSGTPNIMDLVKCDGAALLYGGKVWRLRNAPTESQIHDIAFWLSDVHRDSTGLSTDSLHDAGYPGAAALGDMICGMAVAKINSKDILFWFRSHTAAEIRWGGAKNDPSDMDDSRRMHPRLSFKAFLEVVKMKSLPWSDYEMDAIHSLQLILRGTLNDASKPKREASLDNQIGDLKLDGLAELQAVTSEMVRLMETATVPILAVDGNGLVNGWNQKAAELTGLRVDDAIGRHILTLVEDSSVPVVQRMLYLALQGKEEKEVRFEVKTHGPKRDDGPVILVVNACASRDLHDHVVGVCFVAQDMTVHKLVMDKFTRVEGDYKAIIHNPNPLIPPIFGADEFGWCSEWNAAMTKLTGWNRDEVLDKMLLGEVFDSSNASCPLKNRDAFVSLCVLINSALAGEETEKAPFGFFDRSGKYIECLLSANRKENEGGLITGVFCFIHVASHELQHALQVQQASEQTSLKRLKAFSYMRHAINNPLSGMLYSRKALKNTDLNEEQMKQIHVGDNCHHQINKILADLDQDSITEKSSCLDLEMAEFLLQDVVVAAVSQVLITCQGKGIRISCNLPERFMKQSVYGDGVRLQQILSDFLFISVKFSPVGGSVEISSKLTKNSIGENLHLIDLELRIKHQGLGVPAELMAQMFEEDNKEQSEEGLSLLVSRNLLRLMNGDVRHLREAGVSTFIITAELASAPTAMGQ
Assay: Autophosphorylation and kinase activity assays of 8-azido-ATP-labelled AsphyA
Type: biochemical
Settings: Pfr form of FL-AsphyA, 8-azido-ATP labeling buffer
Experimental: For autophosphorylation assays, reaction mixtures (20 μl) contained kinase buffer (25 mM Tris-HCl, pH 7.8, 0.2 mM EDTA, 4 mM DTT and 5 mM MgCl2) and purified recombinant phytochromes (0.5–1.0 μg) in either Pr or Pfr forms. Phytochrome samples were irradiated with red or far-red light for 15 min before the start of the reaction. Because histone H1 is known to stimulate phytochrome autophosphorylation activity, the same amount of histone H1 (0.5–1.0 μg) was added to the phytochrome samples in the indicated experiments. The conditions for kinase assays were similar to those of phytochrome autophosphorylation experiments, except for addition of a substrate (0.5–1.0 μg). Reactions were started by adding 150 μM ATP containing 10 μCi of (γ-^32P) ATP and incubated at 30 °C for 1 h. […] To verify the proteins loaded, Coomassie blue protein staining and zinc-fluorescence assay were performed before drying. For quantification of the phosphorylation, dried gels were exposed to Fuji imaging plates, and the relative signals of phyA autophosphorylation and PIF3 phosphorylation by phyA were quantitated with a Typhoon FLA 7000 phosphor-imager (GE Healthcare).
Supplementary Figure 11. […] 8-azido-ATP labeled proteins were then detected using avidin-HRP. […] The band intensities were quantified using ImageJ software, and the percentages of 8-azido-ATP labeling were normalized to the 66-610 protein signals. […]

Substance: 8-N3-ATP-biotin-long chain-hydrazone [8-azido-ATP]
- autophosphorylation of 8-azido-ATP-labelled AsphyA: little autophosphorylation
- kinase activity (PIF3) of 8-azido-ATP-labelled AsphyA: significantly reduced kinase activity
